Data from article PMC6132986, “Assessing the toxicity of thiamethoxam, in natural LUFA 2.2 soil, through three generations of Folsomia candida” (Ecotoxicology (London, England), 2018).
Where “and” joins values, the source holds several entries; their conditions need not be identical. Identical values can stand only once. Like-named read-outs stand apart in the source and are kept apart here.

Tests used:
Folsomia candida [1] = settings: cited from earlier work
[2] = pH 7, 20°C; ref Jeschke et al. [2011]; cited from earlier work
[3] = cited from earlier work
Folsomia candida [4] = test: Folsomia candida multigeneration (P, F1, F2) survival and reproduction test in freshly spiked LUFA 2.2 soil; format: in vivo; settings: nominal concentrations
Description: All tests were performed using natural standard LUFA 2.2 soil (LUFA Speyer, Germany), having approximately 1.6% organic carbon, water holding capacity (WHC) of 45%, and soil pH (0.01 M CaCl2) measured in a preliminary test, ranging between 5.03 and 5.87.
Stock solutions of both compounds were prepared in milli-Q water in order to spike the chemicals in the test soil and at the same time bring its moisture content to 50% of the water holding capacity (WHC). The concentration range used for both compounds was: Control −0.04 −0.12 −0.37 −1.1 −3.3 −10 mg a.s./kg dry soil. Due to the toxic effect of the neonicotinoids, the three highest concentrations had to be dropped for F1 and F2 generations. Tests were performed in 100 ml glass jars, containing 30 g moist soil, using five replicate test jars with animals, and two replicates containing approximately 15 g of soil each, without animals (soil analysis). All the test jars were weighed at the start of the test, so the water loss could be checked and replenished, if needed, on a weekly basis.
Folsomia candida Willem 1902 is a cosmopolitan arthropod, belonging to the Collembola order, which is phylogenetically related to the Insecta. The family Isotomidae have a ventral tube or collophore which is involved in the exchange of fluids with the external environment, being an important route of exposure to contaminants present in the pore water. Sexual maturity of F. candida is achieved between 21 to 24 days after hatching (sixth instar), and each individual can lay about 30 to 50 eggs per batch (Fountain and Hopkin [2005]). Adults of this species were taken from cultures at the Department of Ecological Science at the Vrije Universiteit in Amsterdam. In order to obtain synchronized animals, adults were transferred from the culture to 125 ml translucent plastic boxes with a 2 cm layer of plaster of Paris and activated charcoal (8:1), moistened with water, and left for a period of 2–3 days to lay eggs, after which they were removed. The eggs were incubated under a 12 h light/12 h dark regime at 20°C and 75% relative humidity, where they hatched. Juveniles of 10–12 days old were used for starting the test for the parental (P) generation.
Ten age-synchronized animals (10–12 days old) were added to the replicate test jars in generation P. For generations F1 and F2 the age of the animals transferred was around 8–9 days. […] The same procedure was performed for ending the tests with the F1 (after 35–36 days) and F2 (28 days) generations. At the end of the tests, the jars were flooded with water to allow the animals to float and being photographed using a Nikon COOLPIX P510 camera. The images were analysed using the software ImageJ, a Java-based processing program adjusted for counting the animals. For the P and F1 generations, only the juveniles produced in all replicates of each concentration were transferred, using a sieve, to a single container with a plaster of Paris bottom, and left overnight in a climate room, at 20 ± 2 °C, with a 75% relative humidity and a photoperiod of 16:8 h […]. On the following day, batches of 10 randomly selected animals were transferred to jars, with their respective concentration, filled with soil freshly spiked, and covered with an opaque black plastic lid, loosely attached to the rim to allow for aeration. At the start and every week a few grains of dry baker’s yeast (Instant yeast from Algist Bruggeman N.V, Ghent, Belgium) and water were added to the test vessels if needed.
All the dose-response data was analysed using the package “drc”(dose response curve) in the software R, using a general model fitting function–drm, with the option for model select (Ritz and Streibig [2005]). The endpoints LC50, addressing the effects on adult survival, and ECx, addressing sub-lethal effects on the juvenile population were expressed on the basis of nominal soil concentrations.

[5] = Chemical analysis (LC-MSMS) and degradation of thiamethoxam in LUFA 2.2 soil; format: physicochemical
Description: The samples were analysed for thiamethoxam by the commercial certified analytical laboratory Groen Agro Control in Delfgauw, The Netherlands, using LC-MSMS. Detection limit was 0.01 mg/kg dry soil.
Using data on the measured concentrations of thiamethoxam, half-life (DT50) values were estimated assuming first order degradation kinetics. The equation C = C0 × e^−k×t was fitted to the data, with C = concentration at time t in days, C0 is concentration at t = 0 and k = degradation rate constant (day^−1). DT50 was derived as ln(2)/k.

[6] = LUFA 2.2 soil, ref De Lima e Silva et al. [2017], van Gestel et al. [2017]
[7] = Lufa 2.2 soil, ref de Lima e Silva et al. [2017]
[8] = Lufa 2.2 soil, ref van Gestel et al. [2017]
[9] = sphagnum peat (10%), kaolinite clay (20%), quartz sand (70%), ref Reynolds [2008]
[10] = F1 generation, 35-36 days exposure
[11] = F1 generation, 35-36 days exposure, listed as pure thiamethoxam
[12] = F2 generation, 28 days exposure
[13] = F2 generation, 28 days exposure, listed as pure thiamethoxam

## O=[N+]([O-])NC1=NCCN1Cc1ccc(Cl)nc1 [Imidacloprid, imidacloprid]
Folsomia candida [1]; [6]
  EC50: 0.26–0.29 mg a.s./kg dry soil
  LC50: 0.44–0.47 mg a.s./kg dry soil
Folsomia candida [1]; [7]
  EC50: 0.26 mg a.s./kg
  LC50: 0.47 mg a.s./kg
Folsomia candida [1]; [8]
  EC50: 0.29 mg a.s./kg
  LC50: 0.44 mg a.s./kg
Folsomia candida [1]; [9]
  EC50: 0.26 mg a.s./kg
  LC50: 0.86 mg a.s./kg

## CN1COCN(Cc2cnc(Cl)s2)/C1=N\[N+](=O)[O-] [Thiamethoxam Pure, thiamethoxam]
[2]
  Log KOW: −0.13
  octanol-water partition coefficient: 0.741
[3]; ref Bonmatin et al. [2015]
  half-life in soil: ≤ 355 days
Folsomia candida [4]; [10]
  EC50 (reproduction): 0.23 (0–0.52) mg a.s./kg dry soil
  LC50 (adult survival): >0.37 mg a.s./kg dry soil
Folsomia candida [4]; [11]
  EC50 (reproduction): 0.23 mg a.s./kg dry soil
  LC50 (adult survival): > 0.37 mg a.s./kg dry soil
Folsomia candida [4]; F1 generation
  EC10 (reproduction): 0.06 (0–0.14) mg a.s./kg dry soil
  EC20 (reproduction): 0.09 (0–0.20) mg a.s./kg dry soil
Folsomia candida [4]; [12]
  EC50 (reproduction): 0.30 (0.09–0.50) mg a.s./kg dry soil
  LC50 (adult survival): >0.37 mg a.s./kg dry soil
Folsomia candida [4]; [13]
  EC50 (reproduction): 0.30 mg a.s./kg dry soil
  LC50 (adult survival): > 0.37 mg a.s./kg dry soil
Folsomia candida [4]; F2 generation
  EC10 (reproduction): 0.15 (0–0.64) mg a.s./kg dry soil
  EC20 (reproduction): 0.20 (0–0.63) mg a.s./kg dry soil
Folsomia candida [4]; Parental generation, 28 days exposure (Actara 27 days)
  EC50 (reproduction): 0.23 (0.20–0.30) mg a.s./kg dry soil
Folsomia candida [4]; Parental generation, 28 days exposure (Actara 27 days), 95% CI in brackets
  LC50 (adult survival): 0.32 (0.30–0.40) mg a.s./kg dry soil
Folsomia candida [4]; Parental generation, 28 days exposure (Actara 27 days), 95% CI in brackets, listed as pure thiamethoxam
  LC50 (adult survival): 0.32–0.35 mg a.s./kg dry soil and 0.32 mg a.s./kg dry soil
Folsomia candida [4]; Parental generation, 28 days exposure (Actara 27 days), listed as pure thiamethoxam
  EC50 (reproduction): 0.23–0.25 mg a.s./kg dry soil
Folsomia candida [4]; Parental generation
  EC10 (reproduction): 0.07 (0.03–0.10) mg a.s./kg dry soil
  EC20 (reproduction): 0.12 (0.070–0.20) mg a.s./kg dry soil
[5]; LUFA 2.2 soil, average over nominal 0.12-1.1 mg/kg dry soil, read-out: DT50 (half-life in soil), average (converted)
  half-life: 139 days
[5]; LUFA 2.2 soil, nominal 0.12-1.1 mg/kg dry soil
  DT50 (half-life in soil), range over the concentrations: 112 to 165 days
[5]; LUFA 2.2 soil, nominal 0.12-1.1 mg/kg dry soil, read-out: DT50 (half-life in soil), range over the concentrations
  half-life: 112 to 156 days
[5]; first day of the experiment (t = 0), pure and Actara treatments together
  Concentration in soil as % of the nominal: 75–100%
[5]; nominal 0.12 mg/kg dry soil, LUFA 2.2 soil, first order degradation kinetics, read-out: DT50 (half-life in soil) (converted)
  half-life at 0.12 mg/kg dry soil: 165 days
[5]; nominal 0.37 mg/kg dry soil, LUFA 2.2 soil, first order degradation kinetics, read-out: DT50 (half-life in soil) (converted)
  half-life at 0.37 mg/kg dry soil: 140 days
[5]; nominal 1.1 mg/kg dry soil, LUFA 2.2 soil, first order degradation kinetics, read-out: DT50 (half-life in soil) (converted)
  half-life at 1.1 mg/kg dry soil: 112 days
[5]; t = 0, nominal 0.12 mg/kg dry soil
  Recovery Rate: 75%
[5]; t = 0, nominal 0.12 mg/kg dry soil, LUFA 2.2 soil
  Measured Concentration of thiamethoxam in soil: 0.09 mg/kg dry soil
[5]; t = 0, nominal 0.37 mg/kg dry soil
  Recovery Rate: 84%
[5]; t = 0, nominal 0.37 mg/kg dry soil, LUFA 2.2 soil
  Measured Concentration of thiamethoxam in soil: 0.31 mg/kg dry soil
[5]; t = 0, nominal 1.1 mg/kg dry soil
  Recovery Rate: 85%
[5]; t = 0, nominal 1.1 mg/kg dry soil, LUFA 2.2 soil
  Measured Concentration of thiamethoxam in soil: 0.94 mg/kg dry soil
[5]; t = 28 days, nominal 0.12 mg/kg dry soil
  Recovery Rate: 66%
[5]; t = 28 days, nominal 0.12 mg/kg dry soil, LUFA 2.2 soil
  Measured Concentration of thiamethoxam in soil: 0.08 mg/kg dry soil
[5]; t = 28 days, nominal 0.37 mg/kg dry soil, LUFA 2.2 soil
  Measured Concentration of thiamethoxam in soil: 0.27 mg/kg dry soil
[5]; t = 28 days, nominal 1.1 mg/kg dry soil
  Recovery Rate: 72%
[5]; t = 28 days, nominal 1.1 mg/kg dry soil, LUFA 2.2 soil
  Measured Concentration of thiamethoxam in soil: 0.79 mg/kg dry soil

## N#C/N=C1\SCCN1Cc1ccc(Cl)nc1 [thiacloprid]
[3]; ref Van Gestel et al. [2017]
  half-life in soil: 10 to 12 days
